Data as given in patent US4024277A, “Phosphoro-aminosulfenyl derivatives of benzofuran carbamates” (priority 1975, dated 1977).

Key:
Mexican bean beetle [1] = assay: Systemic insecticidal activity (soil/water), Mexican bean beetle; format: in vivo, Epilachna varivestis Mulsant; details: Epilachna varivestis, 48-hour exposure, read-out: % Kill, Mexican Bean Beetle
Procedure: (§1) c. Systemic Insecticidal Acitivity (Soil/Water)
(§2) In this test, a candidate insecticide, in solution, is added to the soil of either uninfested pinto bean seedlings (Phaseolus vulgaris) or uninfested broad bean seedlings (Vicia faba var. Windsor). The plant species used depend on the insect species in the test. Usually, a 72-hour translocation period before infestation is required, followed by a 48-hour exposure period, before evaluation of the tests. The insect species used in the systemic tests are Mexican bean beetle, southern armyworm, pea aphid, and twospotted spider mite.

confused flour beetle [2] = assay: Seven-day residual insecticidal activity, confused flour beetle; format: in vivo, Tribolium confusum Jacquelin duVal; details: Tribolium confusum, 48-hour exposure, read-out: % Kill, Confused Flour Beetle
Excerpt: (§3) b. Seven-Day Residual Insecticidal Activity
(§4) In this test, a candidate insecticide, in solution, is applied to uninfested plants or containers by dipping or spraying. A seven-day holding period is necessary before infestation. A 48-hour exposure period is observed before evaluation of the tests. The insect species used in this type of test are the same as those listed under initial activity.

large milkweed bug = assay: Seven-day residual insecticidal activity, milkweed bug; format: in vivo, Oncopeltus fasciatus (Dallas); details: Oncopeltus fasciatus, 48-hour exposure, read-out: % Kill, Milkweed Bug
Excerpt: as §3, §4

plum curculio [3] = assay: Seven-day residual insecticidal activity, plum curculio; format: in vivo, Conotrachelus nenuphar (Herbst); details: Conotrachelus nenuphar, 48-hour exposure, read-out: % Kill, Plum Curculio
Excerpt: as §3, §4

southern armyworm [4] = assay: Initial insecticidal activity, southern armyworm; format: in vivo, Spodoptera eridania (Cramer); details: Spodoptera eridania, 48-hour exposure, read-out: % Kill, Southern Armyworm
Excerpt: (§5) a. Initial Insecticidal Activity
(§6) In this test, a candidate insecticide, in solution, is applied to either infested or uninfested plants or containers by spraying or dipping. (The preferred test procedure varies with insect species. The dipping method is better than the spraying method, and vice versa, for certain species of insects. Also some species are better adapted to the test by infesting after the chemical treatment rather than before.) Once the tests have been established, a 48-hour exposure period is observed before reading the tests. Insect species included in these tests are Mexican bean beetle (Epilachna varivestis Mulsant), pea aphid [Acyrthosiphon pisum (Harris)], southern armyworm [Spodoptera eridania (Cramer)], twospotted spider mite (Tetranychus urticae Koch), large milkweed bug [Oncopeltus fasciatus (Dallas)], plum curculio [Conotrachelus nenuphar (Herbst)], confused flour beetle (Tribolium confusum Jacquelin duVal) and granary weevil [Sitophilus granarius (Linnaeus)]. Test results are set forth in Table I. A control sample, comprising the solution without the candidate insecticide, is also included.

confused flour beetle [5] = assay: Initial insecticidal activity, confused flour beetle; format: in vivo, Tribolium confusum Jacquelin duVal; details: Tribolium confusum, 48-hour exposure, read-out: % Kill, Confused Flour Beetle
Excerpt: as §5, §6

twospotted spider mite [6] = assay: Systemic insecticidal activity (soil/water), twospotted spider mite; format: in vivo, Tetranychus urticae Koch; details: Tetranychus urticae, 48-hour exposure, read-out: % Kill, Twospotted Spider Mite
Procedure: as §1, §2

twospotted spider mite [7] = assay: Seven-day residual insecticidal activity, twospotted spider mite; format: in vivo, Tetranychus urticae Koch; details: Tetranychus urticae, 48-hour exposure, read-out: % Kill, Twospotted Spider Mite
Excerpt: as §3, §4

Mexican bean beetle [8] = assay: Seven-day residual insecticidal activity, Mexican bean beetle; format: in vivo, Epilachna varivestis Mulsant; details: Epilachna varivestis, 48-hour exposure, read-out: % Kill, Mexican Bean Beetle
Excerpt: as §3, §4

plum curculio [9] = assay: Initial insecticidal activity, plum curculio; format: in vivo, Conotrachelus nenuphar (Herbst); details: Conotrachelus nenuphar, 48-hour exposure, read-out: % Kill, Plum Curculio
Excerpt: as §5, §6

pea aphid [10] = assay: Initial insecticidal activity, pea aphid; format: in vivo, Acyrthosiphon pisum (Harris); details: Acyrthosiphon pisum, 48-hour exposure, read-out: % Kill, Pea Aphid
Excerpt: as §5, §6

Mexican bean beetle [11] = assay: Initial insecticidal activity, Mexican bean beetle; format: in vivo, Epilachna varivestis Mulsant; details: Epilachna varivestis, 48-hour exposure, read-out: % Kill, Mexican Bean Beetle
Excerpt: as §5, §6

house flies = assay: Level I immersion test, house flies; format: in vivo, Musca domestica Linnaeus; details: HF, 5 mg/milliliter; for % Knockdown: 10 minutes after immersion; for mortality at 5000 µg/mL: Musca domestica, after 18-24 hours, read-out: % Kill
Procedure: (§7) e. Insecticidal Activity Against House Flies and German Cockroaches
Compounds of this invention were tested in a Level I test at 5 mg. of active compounds/milliliter of a solution of 40% acetone -- 60% water.
In this test a group of ten house flies (Musca domestica Linnaeus) were completely immersed in 25 ml. of the insecticidal test solution. After 10 seconds of immersion, the test solution is removed. The house flies are then transferred to holding cages lines with paper toweling. In the case of the house flies, the knockdown counts were recorded 10 minutes after termination of the immersion. The percent kill was recorded after 18-24 hours.

pea aphid [12] = assay: Seven-day residual insecticidal activity, pea aphid; format: in vivo, Acyrthosiphon pisum (Harris); details: Acyrthosiphon pisum, 48-hour exposure, read-out: % Kill, Pea Aphid
Excerpt: as §3, §4

southern armyworm [13] = assay: Seven-day residual insecticidal activity, southern armyworm; format: in vivo, Spodoptera eridania (Cramer); details: Spodoptera eridania, 48-hour exposure, read-out: % Kill, Southern Armyworm
Excerpt: as §3, §4

[14] = tested on: female house flies (resistant); assay: Level II topical test, house flies; format: in vivo, Musca domestica Linnaeus; details: HF (female, resistant), one microgram topically per insect; for % Knockdown: 10 minutes; for mortality at 0.001 mg: Musca domestica, topical, read-out: % Kill
Procedure: as §7
(§8) In a Level II test the compounds of this invention were tested for insecticidal activity against female house flies (resistant) and male German cockroaches. Ten insects were anesthetized with carbon dioxide and placed in a container for about 2 hours, during which time the insects recovered to normal activity. The container confining the insects is fitted with a plunger which is used to force the insects against a nylon mesh at one end of the container. One microliter of an acetone solution containing one microgram of the candidate insecticide was applied topically to each insect. The plunger was withdrawn and the insects were allowed to move freely about the container. Knockdown counts were recorded 10 minutes after treatment of house flies and 30 minutes after treatment of cockroaches.

German cockroaches = assay: Level II topical test, German cockroaches; format: in vivo, Blattella germanica (Linnaeus); details: GC (male), one microgram topically per insect; for mortality at 0.001 mg: Blattella germanica, topical, read-out: % Kill; for % Knockdown: 30 minutes
Procedure: as §7, §8

SMILES: CCCN(SN(C)C(=O)Oc1cccc2c1OC(C)(C)C2)P(=O)(Oc1ccccc1)Oc1ccccc1 [7(c)]
- mortality at 39 ppm (Mexican bean beetle [1]): 45%
- mortality at 156 ppm (Mexican bean beetle [1]): 100%
- mortality at 39 ppm (confused flour beetle [2]): 0%
- mortality at 156 ppm (confused flour beetle [2]): 0%
- mortality at 1250 ppm (confused flour beetle [2]): 0%
- mortality at 39 ppm (large milkweed bug): 26%
- mortality at 156 ppm (large milkweed bug): 21%
- mortality at 1250 ppm (large milkweed bug): 60%
- mortality at 39 ppm (plum curculio [3]): 5%
- mortality at 156 ppm (plum curculio [3]): 0%
- mortality at 1250 ppm (plum curculio [3]): 0%
- mortality at 39 ppm (southern armyworm [4]): 0%
- mortality at 156 ppm (southern armyworm [4]): 29%
- mortality at 1250 ppm (southern armyworm [4]): 31%
- mortality at 39 ppm (confused flour beetle [5]): 0%
- mortality at 156 ppm (confused flour beetle [5]): 0%
- mortality at 1250 ppm (confused flour beetle [5]): 0%
- mortality at 39 ppm (twospotted spider mite [6]): 4%
- mortality at 156 ppm (twospotted spider mite [6]): 1%
- mortality at 39 ppm (twospotted spider mite [7]): 1%
- mortality at 156 ppm (twospotted spider mite [7]): 0%
- mortality at 1250 ppm (twospotted spider mite [7]): 0%
- mortality at 39 ppm (Mexican bean beetle [8]): 20%
- mortality at 156 ppm (Mexican bean beetle [8]): 89%
- mortality at 1250 ppm (Mexican bean beetle [8]): 100%
- mortality at 39 ppm (plum curculio [9]): 20%
- mortality at 156 ppm (plum curculio [9]): 50%
- mortality at 1250 ppm (plum curculio [9]): 65%
- mortality at 39 ppm (pea aphid [10]): 11%
- mortality at 156 ppm (pea aphid [10]): 0%
- mortality at 1250 ppm (pea aphid [10]): 0%
- mortality at 39 ppm (Mexican bean beetle [11]): 95%
- mortality at 156 ppm (Mexican bean beetle [11]): 94%
- mortality at 1250 ppm (Mexican bean beetle [11]): 100%
- % Knockdown (house flies): 40%
- mortality at 5000 µg/mL (house flies): 0%
- mortality at 39 ppm (pea aphid [12]): 0%
- mortality at 156 ppm (pea aphid [12]): 0%
- mortality at 1250 ppm (pea aphid [12]): 0%
- mortality at 39 ppm (southern armyworm [13]): 0%
- mortality at 156 ppm (southern armyworm [13]): 0%
- mortality at 1250 ppm (southern armyworm [13]): 0%

SMILES: CCOP(=O)(OCC)N(C)SN(C)C(=O)Oc1cccc2c1OC(C)(C)C2 [Example 1(c), 2,3-dihydro-2,2-dimethyl-7-benzofuranyl [(N-diethoxyphosphinyl) (N-methyl)-aminosulfenyl][methyl]carbamate]
- mortality at 39 ppm (Mexican bean beetle [1]): 100%
- mortality at 156 ppm (Mexican bean beetle [1]): 95%
- mortality at 39 ppm (confused flour beetle [2]): 10%
- mortality at 156 ppm (confused flour beetle [2]): 18%
- mortality at 1250 ppm (confused flour beetle [2]): 23%
- mortality at 39 ppm (large milkweed bug): 55%
- mortality at 156 ppm (large milkweed bug): 100%
- mortality at 1250 ppm (large milkweed bug): 100%
- mortality at 39 ppm (plum curculio [3]): 0%
- mortality at 156 ppm (plum curculio [3]): 22%
- mortality at 1250 ppm (plum curculio [3]): 85%
- mortality at 39 ppm (southern armyworm [4]): 6%
- mortality at 156 ppm (southern armyworm [4]): 20%
- mortality at 1250 ppm (southern armyworm [4]): 95%
- mortality at 39 ppm (confused flour beetle [5]): 14%
- mortality at 156 ppm (confused flour beetle [5]): 15%
- mortality at 1250 ppm (confused flour beetle [5]): 33%
- mortality at 39 ppm (twospotted spider mite [6]): 2%
- mortality at 156 ppm (twospotted spider mite [6]): 8%
- mortality at 39 ppm (twospotted spider mite [7]): 2%
- mortality at 156 ppm (twospotted spider mite [7]): 1%
- mortality at 1250 ppm (twospotted spider mite [7]): 9%
- mortality at 39 ppm (Mexican bean beetle [8]): 38%
- mortality at 156 ppm (Mexican bean beetle [8]): 89%
- mortality at 1250 ppm (Mexican bean beetle [8]): 86%
- mortality at 39 ppm (plum curculio [9]): 0%
- mortality at 156 ppm (plum curculio [9]): 15%
- mortality at 1250 ppm (plum curculio [9]): 100%
- % Knockdown [14]: 0%
- mortality at 0.001 mg [14]: 20%
- mortality at 39 ppm (pea aphid [10]): 0%
- mortality at 156 ppm (pea aphid [10]): 100%
- mortality at 1250 ppm (pea aphid [10]): 100%
- mortality at 39 ppm (Mexican bean beetle [11]): 100%
- mortality at 156 ppm (Mexican bean beetle [11]): 100%
- mortality at 1250 ppm (Mexican bean beetle [11]): 100%
- % Knockdown (house flies): 100%
- mortality at 5000 µg/mL (house flies): 100%
- mortality at 39 ppm (pea aphid [12]): 0%
- mortality at 156 ppm (pea aphid [12]): 0%
- mortality at 1250 ppm (pea aphid [12]): 100%
- mortality at 0.001 mg (German cockroaches): 0%
- % Knockdown (German cockroaches): 0%
- mortality at 39 ppm (southern armyworm [13]): 0%
- mortality at 156 ppm (southern armyworm [13]): 5%
- mortality at 1250 ppm (southern armyworm [13]): 95%

SMILES: CCOP(=O)(OCC)N(CC)SN(C)C(=O)Oc1cccc2c1OC(C)(C)C2 [8(c), 2,3-Dihydro-2,2-dimethyl-7-benzofuranyl [(N-diethoxyphosphinyl) (N-ethyl)aminosulfenyl][methyl]carbamate]
- mortality at 39 ppm (Mexican bean beetle [1]): 67%
- mortality at 156 ppm (Mexican bean beetle [1]): 100%
- mortality at 39 ppm (confused flour beetle [2]): 0%
- mortality at 156 ppm (confused flour beetle [2]): 0%
- mortality at 1250 ppm (confused flour beetle [2]): 12%
- mortality at 39 ppm (large milkweed bug): 95%
- mortality at 156 ppm (large milkweed bug): 100%
- mortality at 1250 ppm (large milkweed bug): 100%
- mortality at 39 ppm (plum curculio [3]): 0%
- mortality at 156 ppm (plum curculio [3]): 5%
- mortality at 1250 ppm (plum curculio [3]): 100%
- mortality at 39 ppm (southern armyworm [4]): 0%
- mortality at 156 ppm (southern armyworm [4]): 59%
- mortality at 1250 ppm (southern armyworm [4]): 100%
- mortality at 39 ppm (confused flour beetle [5]): 0%
- mortality at 156 ppm (confused flour beetle [5]): 0%
- mortality at 1250 ppm (confused flour beetle [5]): 50%
- mortality at 39 ppm (twospotted spider mite [6]): 4%
- mortality at 156 ppm (twospotted spider mite [6]): 13%
- mortality at 39 ppm (twospotted spider mite [7]): 0%
- mortality at 156 ppm (twospotted spider mite [7]): 0%
- mortality at 1250 ppm (twospotted spider mite [7]): 0%
- mortality at 39 ppm (Mexican bean beetle [8]): 12%
- mortality at 156 ppm (Mexican bean beetle [8]): 93%
- mortality at 1250 ppm (Mexican bean beetle [8]): 100%
- mortality at 39 ppm (plum curculio [9]): 0%
- mortality at 156 ppm (plum curculio [9]): 45%
- mortality at 1250 ppm (plum curculio [9]): 100%
- % Knockdown [14]: 0%
- mortality at 0.001 mg [14]: 33%
- mortality at 39 ppm (pea aphid [10]): 0%
- mortality at 156 ppm (pea aphid [10]): 83%
- mortality at 1250 ppm (pea aphid [10]): 100%
- mortality at 39 ppm (Mexican bean beetle [11]): 100%
- mortality at 156 ppm (Mexican bean beetle [11]): 100%
- mortality at 1250 ppm (Mexican bean beetle [11]): 100%
- % Knockdown (house flies): 100%
- mortality at 5000 µg/mL (house flies): 100%
- mortality at 39 ppm (pea aphid [12]): 0%
- mortality at 156 ppm (pea aphid [12]): 0%
- mortality at 1250 ppm (pea aphid [12]): 0%
- mortality at 0.001 mg (German cockroaches): 0%
- % Knockdown (German cockroaches): 0%
- mortality at 39 ppm (southern armyworm [13]): 0%
- mortality at 156 ppm (southern armyworm [13]): 0%
- mortality at 1250 ppm (southern armyworm [13]): 43%
